Measurements: patent US20220409617A1, “Drug Formulations and Methods of Treatment for Metabolic Disorders” (The Regents of the University of California, priority 2019, published 2022)

Tests used:
[1] = system: A549 lung cancer cells; test: KRAS-mediated mitochondrial fission in A549 cells; type: cell-based, human; conditions: A549, oncogenic KRAS; 893 5 μM 1 h, leflunomide 50 μM 24 h
Experimental: 3T3-L1 cells were maintained in DMEM with 10% FBS and 1% penicillin-streptomycin until induced to differentiate. 3T3-L1 pre-adipocytes were differentiated as described in (M. P. Valley, et al., Anal. Biochem. 505: 43-50, 2016, the disclosure of which is incorporated herein by reference) with slight modifications. Briefly, pre-adipocytes were grown to confluence. After 2 d, cells were induced with maintenance media containing 500 μM IBMX (15879, Sigma-Aldrich, St. Louis, Mo.), 1 μM dexamethasone (D4902, Sigma-Aldrich), 5 μg/mL bovine insulin (10516, Sigma-Aldrich), and 5 μM troglitazone (50-115-0786, ApexBio). Media was changed every 2-3 d for 7 d. On day 7 post-induction, media was changed to maintenance media+5 μg/mL bovine insulin. On day 9 post-induction, media was changed to maintenance media. Mature adipocytes were used 12-14 d post-induction for all experiments. LSL-KrasG12D mouse embryonic fibroblasts (MEFs) with and without Cre-mediated deletion of the STOP cassette were obtained from David Tuveson (Cold Spring Harbor Laboratory, Cold Spring Harbor N.Y., USA) in 2000. p53^flox/flox MEFs were derived in house (2015) from C57BL/6 mice using standard techniques and immortalized by transient expression of Cre recombinase and deletion of p53. MEFs were cultured and maintained in DMEM with 10% FBS and 1% penicillin-streptomycin. A549 cells were cultured in DMEM with 10% FBS, 1% penicillin-streptomycin and 1% sodium pyruvate. Stock solution of palmitic acid (ACROS Organics, cat # AC129702500) was prepared at 100 mM in ethanol. Palmitate (250 μM) was conjugated to 1% (w/v) fatty-acid free bovine serum albumin (Sigma, A8806) in DMEM at 37° C. for 20 min. For all immunofluorescence assays, 8,000 MEFs were seeded into 8-chamber slides (Cellvis, cat # C8-1.5H-N) 12-16 h before treatment. Cells were pre-treated with sphingolipid-like compound 893 (5 μM in water), myriocin (10 μM in methanol), fumonisin-B1 (30 μM in DMSO), or celastrol (500 nM in DMSO) for 3 h followed by a 3 h treatment with BSA-conjugated palmitate mixture or BSA alone. […]
(§1) MEFs were washed twice with PBS and fixed with 4% paraformaldehyde for 10 min at RT. […] NADH/NADPH autofluorescence was detected with 740 nm excitation and 450±50 nm detectors using a Mai Tai two-photon laser. Fluorescence microscopy was performed on a Zeiss LSM 780 confocal using a 63× oil objective with a […] numerical aperture (NA) or using a Nikon TE2000-S inverted epifluorescence microscope with a 100× oil objective (1.3 NA) and a Photometrics CoolSNAP ES2 monochrome CCD camera. […]

[2] = cited from earlier work
[3] = Fasting blood glucose and oral glucose tolerance test in HFD-fed mice; type: in vivo, mouse
Experimental: Mice were fasted for 6 h prior to blood glucose testing at ZT10. When sphingolipid-like compound 893 treatment was combined with an OGTT, mice were treated at ZT6. Once baseline fasting blood glucose was determined using a handheld blood glucose meter (Prodigy Diabetes Care, Charlotte, N.C.) and a drop of blood collected from a tail vein nick, mice were gavaged with an oral glucose solution (20% w/v in water, 2 g/kg bodyweight) and blood glucose measured in a drop of tail vein blood at 0, 15, 30, 60 and 120 min. The area under the curve was determined using Graphpad Prism software.

[4] = system: KRAS G12D knock-in MEFs; test: KRAS-mediated mitochondrial fission in KRAS G12D knock-in MEFs; type: cell-based, mouse; conditions: 893 5 μM
Experimental: 3T3-L1 cells were maintained in DMEM with 10% FBS and 1% penicillin-streptomycin until induced to differentiate. 3T3-L1 pre-adipocytes were differentiated as described in (M. P. Valley, et al., Anal. Biochem. 505: 43-50, 2016, the disclosure of which is incorporated herein by reference) with slight modifications. Briefly, pre-adipocytes were grown to confluence. After 2 d, cells were induced with maintenance media containing 500 μM IBMX (15879, Sigma-Aldrich, St. Louis, Mo.), 1 μM dexamethasone (D4902, Sigma-Aldrich), 5 μg/mL bovine insulin (10516, Sigma-Aldrich), and 5 μM troglitazone (50-115-0786, ApexBio). Media was changed every 2-3 d for 7 d. On day 7 post-induction, media was changed to maintenance media+5 μg/mL bovine insulin. On day 9 post-induction, media was changed to maintenance media. Mature adipocytes were used 12-14 d post-induction for all experiments. […]
as §1

[5] = 120 mg/kg by oral gavage, prior studies

CCCCCCCCc1ccc([C@H]2CCN[C@@H]2CO)cc1.Cl [compound 893]
Reversal of mitochondrial fragmentation / tubularity in A549 cells [1]: rapidly corrected KRAS-mediated mitochondrial fission | Amino acid-dependent mTORC1 signaling [2, 5]: reduces amino acid-dependent mTORC1 signaling | Toxicity (blood chemistry, complete blood count, liver and small intestine histology) [2, 5]: without toxicity | Tumor growth [2, 5]: inhibits tumor growth | Hepatotoxicity ([2]; chronic treatment with the high dose, otherwise healthy tumor-bearing mice): not hepatotoxic | Fasting glucose and glucose disposal (OGTT) ([3]; 60 mg/kg three days a week for 25 days): intermediate effect | Fasting glucose and glucose disposal (OGTT) ([3]; 120 mg/kg three days a week for 25 days): normalized both fasting glucose and glucose disposal | Correction of KRAS-mediated mitochondrial fission in KRAS G12D MEFs [4]: rapidly corrected KRAS-mediated mitochondrial fission
